Laboratory results as given in ChEMBL document CHEMBL5038659, “Discovery of the First Examples of Threonine Tyrosine Kinase PROTAC Degraders” (J Med Chem, 2022).

How the values were obtained:
[1] = molecular target: T1, Dual specificity protein kinase TTK (Homo sapiens, UniProt P33981); test: Binding affinity to human TTK expressed in bacterial expression system assessed as dissociation constant at 100 nM by biochemical assay
T1 sequence (P33981 whole entry): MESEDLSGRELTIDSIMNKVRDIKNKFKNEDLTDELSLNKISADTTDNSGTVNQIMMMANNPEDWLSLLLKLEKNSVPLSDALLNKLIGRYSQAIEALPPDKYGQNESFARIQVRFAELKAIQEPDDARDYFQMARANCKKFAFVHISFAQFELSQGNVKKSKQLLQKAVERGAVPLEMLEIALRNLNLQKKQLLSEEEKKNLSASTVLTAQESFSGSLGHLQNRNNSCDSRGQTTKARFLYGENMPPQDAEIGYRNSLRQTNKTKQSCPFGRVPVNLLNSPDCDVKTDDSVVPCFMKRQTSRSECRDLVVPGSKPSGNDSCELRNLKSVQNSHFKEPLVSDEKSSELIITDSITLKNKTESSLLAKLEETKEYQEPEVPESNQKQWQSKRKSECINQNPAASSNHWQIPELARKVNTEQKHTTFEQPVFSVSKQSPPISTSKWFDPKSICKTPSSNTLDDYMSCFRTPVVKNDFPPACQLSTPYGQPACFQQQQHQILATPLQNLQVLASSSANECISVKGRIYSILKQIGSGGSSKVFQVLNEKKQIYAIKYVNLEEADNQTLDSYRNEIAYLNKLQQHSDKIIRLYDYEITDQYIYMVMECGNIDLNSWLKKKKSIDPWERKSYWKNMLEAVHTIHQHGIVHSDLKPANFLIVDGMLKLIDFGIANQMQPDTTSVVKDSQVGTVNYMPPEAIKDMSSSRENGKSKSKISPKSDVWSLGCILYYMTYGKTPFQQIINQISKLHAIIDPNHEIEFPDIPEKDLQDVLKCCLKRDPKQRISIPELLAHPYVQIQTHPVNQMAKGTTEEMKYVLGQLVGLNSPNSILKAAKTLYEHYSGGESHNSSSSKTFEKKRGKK

COLO 205 = test: Antiproliferative against human COLO 205 cells assessed as cell viability after 4 days by CCK-8 assay; assay type: functional, cell-based; settings: COLO 205, 96 h

- Kd [1]: 0.7 nM
- IC50 (COLO 205): 800 nM
SMILES: CCC(=O)N[C@H]1CC[C@@H](n2c(=O)cc(C)c3cnc(Nc4ccc(N5CCN(C)CC5)cc4OC)nc32)CC1
